Results taken from ChEMBL document CHEMBL1201861, “Genomics of Drug Sensitity in Cancer screening data, Wellcome Trust Sanger Institute”.

Experiments:
Assay in all cases: cells
H4 = assay type: functional, cell-based; conditions: Homo sapiens
Description: SANGER: Inhibition of human H4 cell growth in a cell viability assay.

CAL-120 = assay type: functional, cell-based; conditions: Homo sapiens;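 further: cell growth inhibition, read out as cell viability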
Description: SANGER: Inhibition of human CAL-120 cell growth in a cell viability assay.

CAL-33 = assay type: functional, cell-based; conditions: Homo sapiens;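 further: growth inhibition of CAL-33 cells, read out with a cell viability assay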
Description: SANGER: Inhibition of human CAL-33 cell growth in a cell viability assay.

RT-112 = assay type: functional, cell-based; conditions: Homo sapiens
Description: SANGER: Inhibition of human RT-112 cell growth in a cell viability assay.

MKN-45 = assay type: functional, cell-based; conditions: Homo sapiens;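 further: growth inhibition of human MKN-45 cells, measured with a cell viability assay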
Description: SANGER: Inhibition of human MKN45 cell growth in a cell viability assay.

SW837 = assay type: functional, cell-based; conditions: Homo sapiens;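 further: growth inhibition of SW837 cells, determined with a cell viability assay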
Description: SANGER: Inhibition of human SW837 cell growth in a cell viability assay.

SW1088 = assay type: functional, cell-based; conditions: Homo sapiens;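 further: growth inhibition of human SW1088 cells, read out by a cell viability assay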
Description: SANGER: Inhibition of human SW1088 cell growth in a cell viability assay.

U-251 = assay type: functional, cell-based; conditions: Homo sapiens;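 further: growth inhibition of human U-251 cells, read out through a cell viability assay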
Description: SANGER: Inhibition of human U251 cell growth in a cell viability assay.

HCC38 = assay type: functional, cell-based; conditions: Homo sapiens;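 further: cell viability assay on the human HCC38 cell line, with IC50 marking the concentration that inhibits cell growth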
Description: SANGER: Inhibition of human HCC38 cell growth in a cell viability assay.

IGROV-1 = assay type: functional, cell-based; conditions: Homo sapiens;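 further: reduction of IGROV-1 cell growth, read out with a viability assay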
Description: SANGER: Inhibition of human IGROV-1 cell growth in a cell viability assay.

NCI-H596 = assay type: functional, cell-based; conditions: Homo sapiens;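 further: growth inhibition of NCI-H596 cells, read out with a cell viability assay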
Description: SANGER: Inhibition of human NCI-H596 cell growth in a cell viability assay.

A2780 = assay type: functional, cell-based; conditions: Homo sapiens;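 further: growth inhibition of A2780 cells, read out with a cell viability assay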
Description: SANGER: Inhibition of human A2780 cell growth in a cell viability assay.

Hs-578T = assay type: functional, cell-based; conditions: Homo sapiens
Description: SANGER: Inhibition of human Hs-578-T cell growth in a cell viability assay.

UO-31 = assay type: functional, cell-based; conditions: Homo sapiens;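 further: cell viability assay measuring inhibition of cell growth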
Description: SANGER: Inhibition of human U031 cell growth in a cell viability assay.

NCI-H727 = assay type: functional, cell-based; conditions: Homo sapiens;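 further: growth inhibition of human NCI-H727 cells, read out with a cell viability assay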
Description: SANGER: Inhibition of human NCI-H727 cell growth in a cell viability assay.

5637 = assay type: functional, cell-based; conditions: Homo sapiens
Description: SANGER: Inhibition of human 5637 cell growth in a cell viability assay.

COR-L105 = assay type: functional, cell-based; conditions: Homo sapiens;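 further: cell growth inhibition determined with a viability assay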
Description: SANGER: Inhibition of human COR-L105 cell growth in a cell viability assay.

OE33 = assay type: functional, cell-based; conditions: Homo sapiens;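 further: growth inhibition of human OE33 cells, measured by a cell viability assay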
Description: SANGER: Inhibition of human OE33 cell growth in a cell viability assay.

S-117 = assay type: functional, cell-based; conditions: Homo sapiens
Description: SANGER: Inhibition of human S-117 cell growth in a cell viability assay.

A-431 = assay type: functional, cell-based; conditions: Homo sapiens;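 further: growth inhibition of A-431 cells, determined with a cell viability read-out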
Description: SANGER: Inhibition of human A431 cell growth in a cell viability assay.

SCC-4 = assay type: functional, cell-based; conditions: Homo sapiens;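 further: growth inhibition of human SCC-4 cells, read out as cell viability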
Description: SANGER: Inhibition of human SCC-4 cell growth in a cell viability assay.

EFM-19 = assay type: functional, cell-based; conditions: Homo sapiens;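 further: growth inhibition of human EFM-19 cells, measured in a cell viability assay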
Description: SANGER: Inhibition of human EFM-19 cell growth in a cell viability assay.

LU-99A = assay type: functional, cell-based; conditions: Homo sapiens;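 further: growth inhibition of LU-99A cells, read out with a cell viability assay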
Description: SANGER: Inhibition of human LU-99A cell growth in a cell viability assay.

C3A = assay type: functional, cell-based; conditions: Homo sapiens;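 further: growth inhibition of C3A human cells, quantified with a cell viability readout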
Description: SANGER: Inhibition of human C3A cell growth in a cell viability assay.

LK-2 = assay type: functional, cell-based; conditions: Homo sapiens;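 further: growth inhibition of LK-2 cells, read out with a viability assay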
Description: SANGER: Inhibition of human LK-2 cell growth in a cell viability assay.

HOS = assay type: functional, cell-based; conditions: Homo sapiens;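 further: growth inhibition of human HOS cells, read out with a cell viability assay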
Description: SANGER: Inhibition of human HOS cell growth in a cell viability assay.

8305C = assay type: functional, cell-based; conditions: Homo sapiens
Description: SANGER: Inhibition of human 8305C cell growth in a cell viability assay.

ESS-1 = assay type: functional, cell-based; conditions: Homo sapiens;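 further: growth inhibition of human ESS-1 cells, read out by a cell viability assay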
Description: SANGER: Inhibition of human ESS-1 cell growth in a cell viability assay.

CAL-12T = assay type: functional, cell-based, Homo sapiens; conditions: Homo sapiens, CAL-12T;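 further: growth inhibition of human CAL-12T cells, read out with a cell viability assay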
Description: SANGER: Inhibition of human CAL-12T cell growth in a cell viability assay.

HT-1080 = assay type: functional, cell-based; conditions: Homo sapiens
Description: SANGER: Inhibition of human HT-1080 cell growth in a cell viability assay.

MDA-MB-415 = assay type: functional, cell-based; conditions: Homo sapiens
DU-145 = assay type: functional, cell-based; conditions: Homo sapiens
Description: SANGER: Inhibition of human DU-145 cell growth in a cell viability assay.

HGC-27 = assay type: functional, cell-based; conditions: Homo sapiens;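 further: growth inhibition of human HGC-27 cells, read out in a cell viability assay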
Description: SANGER: Inhibition of human HGC-27 cell growth in a cell viability assay.

YAPC = assay type: functional, cell-based; conditions: Homo sapiens;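 further: growth inhibition of YAPC cells, measured with a cell viability assay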
Description: SANGER: Inhibition of human YAPC cell growth in a cell viability assay.

NCI-H661 = assay type: functional, cell-based; conditions: Homo sapiens;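 further: cell viability assay read-out, IC50 being the concentration that inhibits growth of the cells by half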
Description: SANGER: Inhibition of human NCI-H661 cell growth in a cell viability assay.

A-427 = assay type: functional, cell-based; conditions: Homo sapiens;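 further: growth inhibition of human A-427 cells, read out by a cell viability assay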
Description: SANGER: Inhibition of human A427 cell growth in a cell viability assay.

SNU-423 = assay type: functional, cell-based; conditions: Homo sapiens
Description: SANGER: Inhibition of human SNU-423 cell growth in a cell viability assay.

CAPAN-1 = assay type: functional, cell-based; conditions: Homo sapiens;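 further: growth suppression of CAPAN-1 cells, read out by a cell viability assay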
Description: SANGER: Inhibition of human CAPAN-1 cell growth in a cell viability assay.

G-402 = assay type: functional, cell-based; conditions: Homo sapiens
Description: SANGER: Inhibition of human G-402 cell growth in a cell viability assay.

SAOS-2 = assay type: functional, cell-based; conditions: Homo sapiens;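 further: growth inhibition of human Saos-2 cells determined by a cell viability assay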
Description: SANGER: Inhibition of human Saos-2 cell growth in a cell viability assay.

NCI-H2087 = assay type: functional, cell-based; conditions: Homo sapiens;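 further: growth inhibition determined with a cell viability readout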
Description: SANGER: Inhibition of human NCI-H2087 cell growth in a cell viability assay.

MDA-MB-175-VII = assay type: functional, cell-based; conditions: Homo sapiens
HT55 = assay type: functional, cell-based; conditions: Homo sapiens;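 further: cell viability readout measuring growth inhibition of human HT55 cells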
Description: SANGER: Inhibition of human HT55 cell growth in a cell viability assay.

A 172 = assay type: functional, cell-based; conditions: Homo sapiens;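 further: growth inhibition of A172 cells, measured with a cell viability readout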
Description: SANGER: Inhibition of human A172 cell growth in a cell viability assay.

NCI-H441 = assay type: functional, cell-based; conditions: Homo sapiens;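 further: growth inhibition of NCI-H441 cells, read out with a cell viability assay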
Description: SANGER: Inhibition of human NCI-H441 cell growth in a cell viability assay.

DMS-273 = assay type: functional, cell-based; conditions: Homo sapiens
Description: SANGER: Inhibition of human DMS-273 cell growth in a cell viability assay.

DK-MG = assay type: functional, cell-based; conditions: Homo sapiens;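 further: growth inhibition of DK-MG cells, read out with a cell viability assay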
Description: SANGER: Inhibition of human DK-MG cell growth in a cell viability assay.

G-361 = assay type: functional, cell-based; conditions: Homo sapiens
RERF-LC-MS = assay type: functional, cell-based; conditions: Homo sapiens;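 further: growth inhibition of human RERF-LC-MS cells, read out by a cell viability assay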
Description: SANGER: Inhibition of human RERF-LC-MS cell growth in a cell viability assay.

NC(=O)c1ncn([C@@H]2O[C@H](COP(=O)(O)O)[C@@H](O)[C@H]2O)c1N
IC50 (H4): > 2000 µM | IC50 (CAL-120): 838 µM | IC50 (CAL-33): 1310 µM | IC50 (RT-112): 1870 µM | IC50 (MKN-45): > 2000 µM | IC50 (SW837): > 2000 µM | IC50 (SW1088): > 2000 µM | IC50 (U-251): > 2000 µM | IC50 (HCC38): > 2000 µM | IC50 (IGROV-1): > 2000 µM | IC50 (NCI-H596): > 2000 µM | IC50 (A2780): 1860 µM | IC50 (Hs-578T): > 2000 µM | IC50 (UO-31): 766 µM | IC50 (NCI-H727): > 2000 µM | IC50 5637: > 2000 µM | IC50 (COR-L105): > 2000 µM | IC50 (OE33): 1330 µM | IC50 (S-117): > 2000 µM | IC50 (A-431): > 2000 µM | IC50 (SCC-4): 1230 µM | IC50 (EFM-19): 343 µM | IC50 (LU-99A): > 2000 µM | IC50 (C3A): > 2000 µM | IC50 (LK-2): > 2000 µM | IC50 (HOS): > 2000 µM | IC50 (8305C): > 2000 µM | IC50 (ESS-1): > 2000 µM | IC50 (CAL-12T): 668 µM | IC50 (HT-1080): > 2000 µM | IC50 (MDA-MB-415): 655 µM | IC50 (DU-145): > 2000 µM | IC50 (HGC-27): 1320 µM | IC50 (YAPC): > 2000 µM | IC50 (NCI-H661): > 2000 µM | IC50 (A-427): > 2000 µM | IC50 (SNU-423): 1220 µM | IC50 (CAPAN-1): > 2000 µM | IC50 (G-402): 1320 µM | IC50 (SAOS-2): > 2000 µM | IC50 (NCI-H2087): > 2000 µM | IC50 (MDA-MB-175-VII): > 2000 µM | IC50 (HT55): > 2000 µM | IC50 (A 172): > 2000 µM | IC50 (NCI-H441): > 2000 µM | IC50 (DMS-273): > 2000 µM

CC[C@@]1(O)C(=O)OCc2c1cc1n(c2=O)Cc2cc3ccccc3nc2-1 [CAMPTOTHECIN]
IC50 (H4): 0.000615 µM | IC50 (CAL-120): > 0.1 µM | IC50 (CAL-33): 0.006 µM | IC50 (RT-112): 0.0149 µM | IC50 (MKN-45): 0.0275 µM | IC50 (SW837): 0.0489 µM | IC50 (SW1088): 0.0278 µM | IC50 (U-251): 0.00187 µM | IC50 (HCC38): 0.0129 µM | IC50 (IGROV-1): 0.0363 µM | IC50 (NCI-H596): > 0.1 µM | IC50 (A2780): 0.0029 µM | IC50 (UO-31): 0.0341 µM | IC50 (NCI-H727): > 0.1 µM | IC50 5637: 0.00418 µM | IC50 (DK-MG): 0.0847 µM | IC50 (OE33): 0.0256 µM | IC50 (S-117): 0.0781 µM | IC50 (A-431): > 0.1 µM | IC50 (SCC-4): 0.0193 µM | IC50 (LU-99A): 0.00385 µM | IC50 (C3A): 0.0569 µM | IC50 (LK-2): 0.0355 µM | IC50 (G-361): > 0.1 µM | IC50 (HOS): 0.0014 µM | IC50 (8305C): 0.094 µM | IC50 (ESS-1): 0.00708 µM | IC50 (HT-1080): 0.000394 µM | IC50 (DU-145): > 0.1 µM | IC50 (HGC-27): 0.00407 µM | IC50 (YAPC): 0.0296 µM | IC50 (NCI-H661): 0.0136 µM | IC50 (A-427): 0.00425 µM | IC50 (RERF-LC-MS): 0.0229 µM | IC50 (CAPAN-1): 0.015 µM | IC50 (G-402): 0.0245 µM | IC50 (SAOS-2): 0.0178 µM | IC50 (NCI-H2087): 0.00507 µM | IC50 (MDA-MB-175-VII): 0.083 µM | IC50 (A 172): 0.0128 µM | IC50 (NCI-H441): 0.0285 µM | IC50 (DMS-273): 0.00607 µM

Cn1c(=O)n(-c2ccc(C(C)(C)C#N)cc2)c2c3cc(-c4cnc5ccccc5c4)ccc3ncc21 [DACTOLISIB]
IC50 (H4): 0.0127 µM | IC50 (CAL-120): 0.0347 µM | IC50 (CAL-33): 0.0851 µM | IC50 (RT-112): 0.0197 µM | IC50 (SW837): 1.33 µM | IC50 (SW1088): 0.0283 µM | IC50 (U-251): 0.0384 µM | IC50 (HCC38): 0.266 µM | IC50 (IGROV-1): 0.136 µM | IC50 (NCI-H596): 0.228 µM | IC50 (A2780): 0.106 µM | IC50 (Hs-578T): 0.0246 µM | IC50 (UO-31): 0.0967 µM | IC50 (NCI-H727): 0.412 µM | IC50 5637: 0.0792 µM | IC50 (DK-MG): 0.18 µM | IC50 (COR-L105): 0.015 µM | IC50 (OE33): 0.189 µM | IC50 (S-117): 0.0763 µM | IC50 (A-431): 0.09 µM | IC50 (SCC-4): 0.0714 µM | IC50 (EFM-19): 0.0675 µM | IC50 (LU-99A): 0.117 µM | IC50 (C3A): > 2 µM | IC50 (LK-2): 0.0771 µM | IC50 (HOS): 0.0211 µM | IC50 (8305C): 0.0419 µM | IC50 (ESS-1): 0.135 µM | IC50 (CAL-12T): 0.0386 µM | IC50 (HT-1080): 0.0219 µM | IC50 (MDA-MB-415): 0.177 µM | IC50 (DU-145): > 2 µM | IC50 (HGC-27): 0.0181 µM | IC50 (YAPC): 0.491 µM | IC50 (NCI-H661): 0.151 µM | IC50 (A-427): 0.183 µM | IC50 (SNU-423): 0.068 µM | IC50 (RERF-LC-MS): 0.124 µM | IC50 (CAPAN-1): > 2 µM | IC50 (G-402): 0.0222 µM | IC50 (SAOS-2): 0.179 µM | IC50 (NCI-H2087): 0.235 µM | IC50 (MDA-MB-175-VII): 0.0395 µM | IC50 (HT55): 1.31 µM | IC50 (NCI-H441): 0.895 µM | IC50 (DMS-273): 0.0609 µM

CC(=O)c1c(C)c2cnc(Nc3ccc(N4CCNCC4)cn3)nc2n(C2CCCC2)c1=O [PALBOCICLIB]
IC50 (H4): 1.73 µM | IC50 (CAL-120): > 4 µM | IC50 (CAL-33): > 4 µM | IC50 (RT-112): 0.321 µM | IC50 (SW1088): 3.47 µM | IC50 (U-251): 0.814 µM | IC50 (HCC38): > 4 µM | IC50 (IGROV-1): > 4 µM | IC50 (NCI-H596): > 4 µM | IC50 (A2780): > 4 µM | IC50 (Hs-578T): 1.26 µM | IC50 (NCI-H727): > 4 µM | IC50 5637: > 4 µM | IC50 (DK-MG): > 4 µM | IC50 (COR-L105): > 4 µM | IC50 (OE33): > 4 µM | IC50 (S-117): > 4 µM | IC50 (A-431): > 4 µM | IC50 (SCC-4): > 4 µM | IC50 (EFM-19): > 4 µM | IC50 (LU-99A): > 4 µM | IC50 (C3A): > 4 µM | IC50 (LK-2): > 4 µM | IC50 (HOS): 1.35 µM | IC50 (8305C): > 4 µM | IC50 (ESS-1): > 4 µM | IC50 (CAL-12T): > 4 µM | IC50 (HT-1080): 1.38 µM | IC50 (MDA-MB-415): > 4 µM | IC50 (DU-145): 3.46 µM | IC50 (HGC-27): 0.565 µM | IC50 (YAPC): > 4 µM | IC50 (NCI-H661): > 4 µM | IC50 (A-427): > 4 µM | IC50 (SNU-423): > 4 µM | IC50 (RERF-LC-MS): > 4 µM | IC50 (CAPAN-1): > 4 µM | IC50 (G-402): > 4 µM | IC50 (SAOS-2): > 4 µM | IC50 (NCI-H2087): > 4 µM | IC50 (MDA-MB-175-VII): > 4 µM | IC50 (HT55): > 4 µM | IC50 (NCI-H441): 1.55 µM | IC50 (DMS-273): > 4 µM
